From ChEMBL document CHEMBL1743341, “Cytochrome p450 enzymes mechanism based inhibitors: common sub-structures and reactivity” (Curr Drug Metab, 2005)

Key:
[1] = target: T1, Cytochrome P450 1B1 (Homo sapiens, UniProt Q16678); test: Mechanism based inhibition of human cytochrome P450 1B1 measured by 7-ethoxyresorufin O-deethylation (EROD); assay type: ADME
T1 sequence (Q16678 whole entry): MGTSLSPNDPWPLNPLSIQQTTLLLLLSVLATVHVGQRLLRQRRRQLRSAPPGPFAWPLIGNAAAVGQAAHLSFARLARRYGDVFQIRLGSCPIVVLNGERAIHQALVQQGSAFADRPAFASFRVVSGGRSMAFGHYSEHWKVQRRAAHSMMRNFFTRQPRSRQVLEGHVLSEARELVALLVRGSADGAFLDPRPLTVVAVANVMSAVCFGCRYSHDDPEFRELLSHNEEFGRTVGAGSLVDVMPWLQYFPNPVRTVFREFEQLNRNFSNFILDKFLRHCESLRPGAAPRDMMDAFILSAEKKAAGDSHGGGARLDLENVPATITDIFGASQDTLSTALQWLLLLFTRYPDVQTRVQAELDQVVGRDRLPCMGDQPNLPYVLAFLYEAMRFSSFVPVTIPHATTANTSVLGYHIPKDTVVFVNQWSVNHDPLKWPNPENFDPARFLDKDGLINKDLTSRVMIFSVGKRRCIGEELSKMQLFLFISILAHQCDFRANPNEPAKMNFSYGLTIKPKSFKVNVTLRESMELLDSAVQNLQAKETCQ

[2] = target: T2, Cytochrome P450 1A2 (Homo sapiens, UniProt P05177); test: Mechanism based inhibition of human cytochrome P450 1A2 measured by 7-ethoxyresorufin O-deethylation (EROD); assay type: ADME
T2 sequence (P05177 whole entry): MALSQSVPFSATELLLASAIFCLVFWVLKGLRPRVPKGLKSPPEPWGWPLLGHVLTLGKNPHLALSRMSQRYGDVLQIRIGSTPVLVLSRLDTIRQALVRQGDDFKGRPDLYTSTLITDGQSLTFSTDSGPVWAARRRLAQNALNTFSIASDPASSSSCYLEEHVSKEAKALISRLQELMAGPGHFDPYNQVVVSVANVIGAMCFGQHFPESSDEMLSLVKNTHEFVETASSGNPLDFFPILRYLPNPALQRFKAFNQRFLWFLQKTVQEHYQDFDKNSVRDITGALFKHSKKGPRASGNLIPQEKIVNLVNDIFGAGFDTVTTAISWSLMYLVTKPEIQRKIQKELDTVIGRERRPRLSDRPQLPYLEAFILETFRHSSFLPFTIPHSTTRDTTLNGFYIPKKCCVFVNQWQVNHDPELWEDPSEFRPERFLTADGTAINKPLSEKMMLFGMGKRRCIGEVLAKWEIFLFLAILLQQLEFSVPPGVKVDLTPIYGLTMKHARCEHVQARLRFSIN

[3] = target: T3, CYP1A2 (Homo sapiens, UniProt P05177); test: (§1) Mechanism based inhibition of human cytochrome P450 1A2 measured by 7-methoxyresorufin O-demethylation (MROD); assay type: ADME; conditions: human, probe 7-methoxyresorufin (O-demethylation, MROD)
T3 sequence (P05177 whole entry): T2 sequence (P05177 whole entry)

[4] = target: T2, Cytochrome P450 1A2; test: as §1; assay type: ADME
[5] = target: T4, Cytochrome P450 1A1 (Homo sapiens, UniProt P04798); test: (§2) Mechanism based inhibition of human cytochrome P450 1A1 measured by 7-ethoxyresorufin O-deethylation (EROD); assay type: ADME
T4 sequence (P04798 whole entry): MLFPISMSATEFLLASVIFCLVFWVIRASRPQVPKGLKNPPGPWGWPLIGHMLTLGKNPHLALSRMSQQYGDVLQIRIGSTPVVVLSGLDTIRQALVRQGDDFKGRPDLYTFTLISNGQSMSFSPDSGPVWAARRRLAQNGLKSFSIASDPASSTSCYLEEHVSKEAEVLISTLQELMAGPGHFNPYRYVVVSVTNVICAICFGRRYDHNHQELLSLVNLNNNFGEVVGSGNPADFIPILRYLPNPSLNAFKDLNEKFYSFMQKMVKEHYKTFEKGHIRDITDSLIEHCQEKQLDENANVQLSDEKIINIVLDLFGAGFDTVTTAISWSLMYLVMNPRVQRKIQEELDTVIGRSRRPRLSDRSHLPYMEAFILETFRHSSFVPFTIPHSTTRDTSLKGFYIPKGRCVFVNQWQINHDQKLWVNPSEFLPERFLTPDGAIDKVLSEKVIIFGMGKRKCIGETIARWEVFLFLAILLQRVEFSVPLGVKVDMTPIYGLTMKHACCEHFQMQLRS

[6] = target: CYP1A1 (Homo sapiens, UniProt P04798); test: as §2; assay type: ADME; conditions: human, probe 7-ethoxyresorufin (O-deethylation, EROD)
[7] = target: T5, Cytochrome P450 1A1 (Rattus norvegicus, UniProt P00185); test: Mechanism based inhibition of rat cytochrome P450 CYP1A1; assay type: ADME
T5 sequence (P00185 whole entry): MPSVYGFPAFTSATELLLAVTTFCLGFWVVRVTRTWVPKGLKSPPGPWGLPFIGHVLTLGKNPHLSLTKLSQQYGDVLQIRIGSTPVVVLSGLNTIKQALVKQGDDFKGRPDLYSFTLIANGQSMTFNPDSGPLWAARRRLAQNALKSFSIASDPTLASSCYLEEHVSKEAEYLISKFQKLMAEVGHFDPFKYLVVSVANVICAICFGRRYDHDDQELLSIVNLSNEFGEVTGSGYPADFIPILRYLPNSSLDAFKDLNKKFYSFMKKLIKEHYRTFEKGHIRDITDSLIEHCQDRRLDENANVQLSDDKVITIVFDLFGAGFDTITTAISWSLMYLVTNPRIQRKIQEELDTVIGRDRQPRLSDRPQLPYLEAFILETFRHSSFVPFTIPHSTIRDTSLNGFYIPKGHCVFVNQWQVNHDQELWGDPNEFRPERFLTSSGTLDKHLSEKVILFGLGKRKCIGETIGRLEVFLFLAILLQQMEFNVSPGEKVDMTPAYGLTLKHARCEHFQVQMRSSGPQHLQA

[8] = target: T6, Cytochrome P450 2B1 (Rattus norvegicus, UniProt P00176); test: (§3) Mechanism based inhibition of rat cytochrome P450 CYP2B1 measured by 7-ethoxycoumarin O-deethylase activity; assay type: ADME
T6 sequence (P00176 whole entry): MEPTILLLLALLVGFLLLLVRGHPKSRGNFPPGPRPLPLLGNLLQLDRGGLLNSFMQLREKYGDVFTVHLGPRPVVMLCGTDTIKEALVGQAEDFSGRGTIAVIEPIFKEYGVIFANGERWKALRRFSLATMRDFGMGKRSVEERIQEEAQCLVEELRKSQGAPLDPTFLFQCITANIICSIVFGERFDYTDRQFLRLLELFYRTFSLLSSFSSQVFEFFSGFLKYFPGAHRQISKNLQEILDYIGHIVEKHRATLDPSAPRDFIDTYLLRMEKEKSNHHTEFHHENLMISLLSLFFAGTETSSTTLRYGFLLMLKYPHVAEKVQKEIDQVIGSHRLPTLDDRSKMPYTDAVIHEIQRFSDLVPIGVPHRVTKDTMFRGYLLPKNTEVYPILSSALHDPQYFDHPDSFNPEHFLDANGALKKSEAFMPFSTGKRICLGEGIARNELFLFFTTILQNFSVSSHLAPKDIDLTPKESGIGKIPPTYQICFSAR

[9] = target: T7, CYP2B1 (Rattus norvegicus, UniProt P00176); test: as §3; assay type: ADME; conditions: rat, probe 7-ethoxycoumarin (O-deethylase activity)
T7 sequence (P00176 whole entry): T6 sequence (P00176 whole entry)

[10] = target: T6, Cytochrome P450 2B1; test: (§4) Mechanism based inhibition of rat cytochrome P450 CYP2B1; assay type: ADME
[11] = target: T7, CYP2B1; test: as §4; assay type: ADME; conditions: rat
[12] = target: T8, CYP2B4 (Oryctolagus cuniculus, UniProt P00178); test: (§5) Mechanism based inhibition of rabbit cytochrome P450 CYP2B4; assay type: ADME; conditions: rabbit
T8 sequence (P00178 whole entry): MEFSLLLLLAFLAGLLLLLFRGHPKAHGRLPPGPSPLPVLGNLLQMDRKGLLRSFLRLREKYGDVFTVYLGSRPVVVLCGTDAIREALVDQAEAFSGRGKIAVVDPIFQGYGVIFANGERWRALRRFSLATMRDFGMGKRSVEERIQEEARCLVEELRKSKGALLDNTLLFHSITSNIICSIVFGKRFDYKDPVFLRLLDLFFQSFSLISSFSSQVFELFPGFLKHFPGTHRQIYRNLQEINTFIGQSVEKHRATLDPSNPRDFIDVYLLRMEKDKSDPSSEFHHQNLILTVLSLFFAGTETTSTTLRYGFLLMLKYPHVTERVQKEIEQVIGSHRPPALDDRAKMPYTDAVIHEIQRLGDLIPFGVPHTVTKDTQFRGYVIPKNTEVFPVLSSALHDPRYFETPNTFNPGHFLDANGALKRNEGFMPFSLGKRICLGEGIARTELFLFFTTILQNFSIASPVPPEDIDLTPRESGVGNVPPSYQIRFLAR

[13] = target: T9, Cytochrome P450 2B4 (Oryctolagus cuniculus, UniProt P00178); test: as §5; assay type: ADME
T9 sequence (P00178 whole entry): T8 sequence (P00178 whole entry)

[14] = target: Cytochrome P450 2B10 (Mus musculus, UniProt P12791); test: Mechanism based inhibition of mouse cytochrome P450 CYP2B10; assay type: ADME
Cytochrome P450 2B10, sequence (P12791 whole entry): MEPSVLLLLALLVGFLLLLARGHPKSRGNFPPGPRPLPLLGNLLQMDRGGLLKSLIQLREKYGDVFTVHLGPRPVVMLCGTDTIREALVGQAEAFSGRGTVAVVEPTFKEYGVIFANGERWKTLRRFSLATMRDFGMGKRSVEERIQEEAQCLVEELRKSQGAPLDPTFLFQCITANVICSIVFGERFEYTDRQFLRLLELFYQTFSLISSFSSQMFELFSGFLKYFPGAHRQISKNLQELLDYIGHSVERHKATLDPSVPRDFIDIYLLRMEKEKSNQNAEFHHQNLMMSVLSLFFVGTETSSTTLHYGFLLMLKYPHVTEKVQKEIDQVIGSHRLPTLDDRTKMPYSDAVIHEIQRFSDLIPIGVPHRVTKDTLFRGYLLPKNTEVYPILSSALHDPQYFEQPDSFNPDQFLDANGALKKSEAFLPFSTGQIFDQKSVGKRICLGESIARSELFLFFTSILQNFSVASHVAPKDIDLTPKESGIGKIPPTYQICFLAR

[15] = target: T10, CYP1A1 (Rattus norvegicus, UniProt P00185); test: (§6) Mechanism based inhibition of rat cytochrome P450 CYP1A1 measured by ethoxyresorufin O-deethylation warfarin R-6 and R-8 hydroxylation; assay type: ADME; conditions: rat
T10 sequence (P00185 whole entry): T5 sequence (P00185 whole entry)

[16] = target: T5, Cytochrome P450 1A1; test: as §6; assay type: ADME
[17] = target: T11, Cytochrome P450 2E1 (Rattus norvegicus, UniProt P05182); test: Mechanism based inhibition of rabbit cytochrome P450 CYP2E1 measured by P-nitrophenol (PNP) hydroxylase activity; assay type: ADME, Oryctolagus cuniculus; conditions: target entry is the homologue from another species
T11 sequence (P05182 whole entry): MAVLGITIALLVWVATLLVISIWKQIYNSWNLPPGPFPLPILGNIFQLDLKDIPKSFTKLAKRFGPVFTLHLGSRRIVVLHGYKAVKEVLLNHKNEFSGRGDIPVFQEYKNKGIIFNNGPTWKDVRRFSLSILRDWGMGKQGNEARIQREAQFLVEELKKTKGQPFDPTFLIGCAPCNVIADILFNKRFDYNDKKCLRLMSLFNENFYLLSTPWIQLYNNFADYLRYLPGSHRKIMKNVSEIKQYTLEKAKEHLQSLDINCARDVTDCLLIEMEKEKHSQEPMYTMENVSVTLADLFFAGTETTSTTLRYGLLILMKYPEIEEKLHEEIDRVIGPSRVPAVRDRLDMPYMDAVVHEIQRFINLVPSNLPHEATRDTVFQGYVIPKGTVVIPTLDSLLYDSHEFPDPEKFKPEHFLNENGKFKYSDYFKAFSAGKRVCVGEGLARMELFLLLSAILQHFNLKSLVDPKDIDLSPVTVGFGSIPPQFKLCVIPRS

[18] = target: T11, Cytochrome P450 2E1; test: Mechanism based inhibition of rat cytochrome P450 CYP2E1; assay type: ADME

**Q.** For CC#Cc1ccc(-c2ccccc2)cc1, which mechanism based inhibition [1] is on record?
**A.** The mechanism based inhibition was “Cytochrome P450 mechanistic inhibitor: PMID 9760279”.

**Q.** And the mechanism based inhibition [2]?
**A.** Its mechanism based inhibition is “Cytochrome P450 mechanistic inhibitor: PMID 9760279”.

**Q.** What about the kinact [3] of the same molecule?
**A.** Its kinact is 0.00167 s⁻¹.

**Q.** And the Ki [4]?
**A.** The Ki was 13 nM.

**Q.** What about the Ki [5] of the same molecule?
**A.** The Ki was 220 nM.

**Q.** What about the mechanism based inhibition [5] of the same molecule?
**A.** The mechanism based inhibition was “Cytochrome P450 mechanistic inhibitor: PMID 9760279”.

**Q.** What about the kinact [6] of the same molecule?
**A.** Its kinact is 0.00667 s⁻¹.

**Q.** And the mechanism based inhibition [7]?
**A.** The mechanism based inhibition was “Cytochrome P450 mechanistic inhibitor: PMID 9074808”.

**Q.** Which results are given for C#Cc1ccc2ccccc2c1?
**A.** mechanism based inhibition [1]: Cytochrome P450 mechanistic inhibitor: PMID 9760279; mechanism based inhibition [2]: Cytochrome P450 mechanistic inhibitor: PMID 9760279; Ki [8]: 80 nM; kinact [9]: 0.0138 s⁻¹; mechanism based inhibition [5]: Cytochrome P450 mechanistic inhibitor: PMID 9760279

**Q.** Which Ki [10] does the source give for Cn1c2ccccc2c2ccccc21 here?
**A.** The Ki was 5200 nM.

**Q.** What about the kinact [11] of the same molecule?
**A.** The kinact was 0.0233 s⁻¹.

**Q.** And the kinact [12]?
**A.** Its kinact is 0.0035 s⁻¹.

**Q.** And the Ki [13]?
**A.** The Ki was 23000 nM.

**Q.** How did the mechanism based inhibition [14] turn out when Cc1c(N)c(C)c([N+](=O)[O-])c(C(C)(C)C)c1[N+](=O)[O-] was run?
**A.** The mechanism based inhibition was “Cytochrome P450 mechanistic inhibitor: PMID 9172959”.

**Q.** O=C(NCCc1ccc([N+](=O)[O-])cc1)C(Cl)Cl was tested. Which kinact [15] did it give?
**A.** Its kinact is 0.00867 s⁻¹.

**Q.** And the Ki [16]?
**A.** Its Ki is 2700 nM.

**Q.** For CC(C)(C)N=C=S, which mechanism based inhibition [17] is on record?
**A.** The mechanism based inhibition was “Cytochrome P450 mechanistic inhibitor: PMID 9778311”.

**Q.** What about the mechanism based inhibition [18] of the same molecule?
**A.** Its mechanism based inhibition is “Cytochrome P450 mechanistic inhibitor: PMID 9778311”.
